Where a chain is given by its changes, count along the chain named. Names and notes keep the numbering of the source.
What was measured:
Type in all cases: cell-based
AtGTR1 [1] = target: T1, AtGTR1 (Arabidopsis thaliana, UniProt Q944G5); experiment: Substrate-induced currents in voltage-clamped Xenopus oocytes expressing AtGTR1; conditions: AtGTR1
T1 construct: A library of Arabidopsis transporters available as full length cDNAs from the RIKEN bioresource center; expressed in transfected cells; host or cells: Xenopus oocytes injected with in vitro transcribed cRNA
T1 sequence (Q944G5 31-636 limits assumed): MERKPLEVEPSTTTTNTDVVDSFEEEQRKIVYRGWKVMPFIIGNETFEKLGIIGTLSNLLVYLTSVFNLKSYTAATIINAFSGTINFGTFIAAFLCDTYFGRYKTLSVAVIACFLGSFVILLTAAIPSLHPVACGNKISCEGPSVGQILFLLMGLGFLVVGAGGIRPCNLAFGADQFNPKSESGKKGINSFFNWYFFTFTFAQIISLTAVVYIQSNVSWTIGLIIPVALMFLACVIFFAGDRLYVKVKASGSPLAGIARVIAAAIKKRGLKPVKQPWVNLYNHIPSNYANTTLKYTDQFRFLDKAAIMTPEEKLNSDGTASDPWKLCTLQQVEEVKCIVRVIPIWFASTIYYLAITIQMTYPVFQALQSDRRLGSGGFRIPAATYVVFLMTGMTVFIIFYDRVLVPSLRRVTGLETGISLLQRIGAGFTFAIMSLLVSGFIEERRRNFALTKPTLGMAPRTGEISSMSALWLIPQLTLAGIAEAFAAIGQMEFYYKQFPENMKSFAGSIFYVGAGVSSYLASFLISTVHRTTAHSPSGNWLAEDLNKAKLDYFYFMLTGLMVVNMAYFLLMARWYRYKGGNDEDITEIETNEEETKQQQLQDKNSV

AtGTR2 [2] = target: T2, AtGTR2 (Arabidopsis thaliana, UniProt Q9LV10); experiment: Glucosinolate uptake by AtGTR2 expressing oocytes, LC-MS analysis of oocyte extracts; conditions: data not shown
T2 construct: expressed in transfected cells; host or cells: Xenopus oocytes injected with in vitro transcribed cRNA (vector pNB1u)
T2 sequence (Q9LV10 1-616): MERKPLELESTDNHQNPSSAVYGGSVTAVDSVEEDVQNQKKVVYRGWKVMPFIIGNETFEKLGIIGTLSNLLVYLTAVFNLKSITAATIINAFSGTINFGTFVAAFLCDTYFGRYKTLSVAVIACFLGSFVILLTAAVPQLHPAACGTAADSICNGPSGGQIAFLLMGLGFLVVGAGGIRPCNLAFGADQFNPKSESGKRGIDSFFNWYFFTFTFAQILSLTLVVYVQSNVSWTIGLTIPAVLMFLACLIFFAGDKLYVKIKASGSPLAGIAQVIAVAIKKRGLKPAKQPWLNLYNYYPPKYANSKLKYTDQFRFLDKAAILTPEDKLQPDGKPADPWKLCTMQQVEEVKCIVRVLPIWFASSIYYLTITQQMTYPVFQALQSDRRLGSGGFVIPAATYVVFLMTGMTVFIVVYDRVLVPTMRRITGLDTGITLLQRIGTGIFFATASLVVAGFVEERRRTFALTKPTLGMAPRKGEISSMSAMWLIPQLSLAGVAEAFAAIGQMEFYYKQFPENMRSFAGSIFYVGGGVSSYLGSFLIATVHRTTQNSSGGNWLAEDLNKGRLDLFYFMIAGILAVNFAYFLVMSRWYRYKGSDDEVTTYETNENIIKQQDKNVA

AtGTR2 [3] = target: T2, AtGTR2; experiment: Uptake of C14-labeled pOHBG in AtGTR2 expressing oocytes in presence of excess competitor; conditions: 50× excess unlabeled competitor, AtGTR2, pH 5
Method: (§1) FIG. 3: Biochemical analysis of AtGTR1 and 2 mediated GSL transport in Xenopus oocytes. A and B, pH dependence of AtGTR-mediated GSL transport. A, AtGTR2 mediated 4-MTB uptake measured by LC-MS analysis of oocyte extracts, n=3 oocytes. B, AtGTR1 currents induced by 1 mM 4-MTB were measured at different membrane potentials at pH 5 ([…]), pH 6 (♦), and pH 7 (▴). Currents were normalized to the current induced at pH 5 at −60 mV, error bars are SD, n=4 oocytes. C and D, kinetic analysis of AtGTR-mediated glucosinolate transport. […]
(§2) The substrate specificity investigations were extended to include substrates previously identified for the NRT/PTR transporter family namely di- and tripeptides and nitrate. […] However, perfusing with 1 mM NO3^− did result in currents but these amounted only to 1/10th of currents measured when perfusing with 100 μM 4-MTB (FIG. 3F). […]
(§3) For assays with radiolabeled substrates, single oocytes were ruptured in 100 μl 10% SDS in 4 ml scintillation vials by shaking for 20-30 minutes. 2.5 ml EcoScint™ scintillation fluid (National Diagnostics) was added, and imported compounds quantified by scintillation counting. For assays with unlabeled substrates, oocyte extracts were analysed by LC-MS. Oocytes were analyzed in batches of 5 oocytes per repetition. […]

AtGTR1 [4] = target: T1, AtGTR1; experiment: Uptake of C14-labeled pOHBG in AtGTR1 expressing oocytes in presence of excess competitor; conditions: 50× excess unlabeled competitor, AtGTR1, pH 5
Method: as §1, §2, §3

Xenopus oocytes [5] = experiment: 4-MTB uptake in Xenopus oocytes expressing Arabidopsis GTR and other NRT/PTR proteins (LC-MS); conditions: pH 5, 1 mM 4-MTB
Xenopus oocytes [6] = experiment: 4-MTB import by phosphorylation/dephosphorylation mimicking GTR1 and GTR2 constructs in oocytes (LC-MS); conditions: 100 μM 4-MTB, Kulori pH 5, one hour

C[S+]([O-])CCCC/C(=N/OS(=O)(=O)O)S[C@@H]1O[C@H](CO)[C@@H](O)[C@H](O)[C@H]1O (stereo partly drawn)
inward current (AtGTR1 [1]; 100 μM substrate, pH 5, voltage clamped at −50 mV): ~10 nA | uptake by AtGTR2 measured by LC-MS analysis of oocyte extracts (AtGTR2 [2]): took up

O=[N+]([O-])O [NO3^−, nitrate]
effect on uptake of 40 μM C14-labeled pOHBG (AtGTR2 [3]): did not have significant inhibitory effects | currents as fraction of currents with 100 μM 4-MTB (AtGTR1 [1]; 1 mM NO3−): 1/10 | effect on uptake of 40 μM C14-labeled pOHBG (AtGTR1 [4]): did not have significant inhibitory effects

O=S(=O)(O)O/N=C(\Cc1ccc(O)cc1)S[C@@H]1O[C@H](CO)[C@@H](O)[C@H](O)[C@H]1O [pOHBG, p-hydroxybenzyl-GSL]
uptake by AtGTR2 measured by LC-MS analysis of oocyte extracts (AtGTR2 [2]): took up

B1: AtGTR5: Arabidopsis GTR protein, SEQ ID NO: 10 (protein, listed as Arabidopsis thaliana)
chain: MVLEDRKDGSSLPGRSGSFSKSSPSELDVVDPYKRISSPGSILDAEKVEKKPGGWRAVSFILGNETLERLGSIGLLANFMVYLTKVFHLEQVDAANVINIWSGFTNLTPLVGAYISDTYVGRFKTIAFASFATLLGLITITLTASFPQLHPASCNSQDPLSCGGPNKLQIGVLLLGLCFLSVGSGGIRPCSIPFGVDQFDQRTEEGVKGVASFFNWYYMTFTVVLIITQTVVVYIQDQVSWIIGFSIPTGLMALAVVMFFAGMKRYVYVKPEGSIFSGIAQVIVAARKKRKLKLPAEDDGTVTYYDPAIKSSVLSKLHRSNQFRCLDKAAVVIEGDLTPEGPPADKWRLCSVQEVEEVKCLIRIVPIWSAGIISLAAMTTQGTFTVSQALKMDRNLGPKFEIPAGSLSVISLLTIGIFLPFYDRVFVPFMRRITGHKSGITLLQRIGTGIVFAIFSMIVAGIVERMRRIRSINAGDPTGMTPMSVFWLSPQLILMGLCEAFNIIGQIEFFNSQFPEHMRSIANSLFSLSFAGSSYLSSFLVTVVHKFSGGHDRPDWLNKNLNAGKLDYFYYLIAVLGVVNLVYFWYCARGYRYKVGLPIEDFEEDKSSDDVEMTSKKSMK
4-MTB uptake activity compared to AtGTR1 (Xenopus oocytes [5]): 10%

B2: AtGTR4: Arabidopsis GTR protein, SEQ ID NO: 8 (protein, listed as Arabidopsis thaliana)
chain: MDNEKGTSSSDLTTRQRKPLGWKAMPYIIGNETLERLATFGLMANFMVYMVREYHMDQVQAVTLINTWSALTNFAPIIGAFISDSYTGKFNTIVFGSIAELLGMLVLTFTSLVPNLRPPPCTADQITGQCIPYSYSQLYVLLSGLFLLSVGTGGIRSCSVPFSLDQFDDSTEEGREGSRSFFSWYYTTHTIVQLVSMTLVLYVQNNISWGIGFAIPTVLNFFALLLLFVGTRYYVFVKPEGSVFSGVFKVLVAAYKKRKARFTSGIDYHQPLLETDLQSNKLVLTDQFRFLNKAVIVMNNDEAGNEEWRTCTVRQIEDIKSIISIIPIFASSIIGFLAMNQQQTFTVSQALKMDLQFPGTSYLIPPASITVISLLNIGIWLPFYETVLVRHIENITKQNGGISLLQKVGIGNIFSISTMLISGIVERKRRDLSLNGVKMSVFWLTPQQVLMGFYQVFTIVGLTEFFNKQVPINMRSIGNSLLYLGLSLASYLSSAMVSIVHSVTARGGQSWLTDDIDKSKLDCFYYFIAALSTLNFIFFFWCARRYRYRNYSNEQ
4-MTB uptake activity compared to AtGTR1 (Xenopus oocytes [5]): 10%

B3: GTR2 T117D: GTR2 of SEQ ID No: 4 with T at position 117 for D (protein, listed as Arabidopsis thaliana)
chain: T2 sequence (Q9LV10 1-616) with T117D
4-MTB transport activity (Xenopus oocytes [6]): block the transport activity

— patent US20140137294A1, “GLUCOSINOLATE TRANSPORTER PROTEIN AND USES THEREOF” (UNIVERSITY OF COPENHAGEN, priority 2010, published 2014)
